Data as given in EP0308568A1, “Diacyl derivatives of 4-(trialkylbenzyl)-piperazinyl compounds” (CIBA-GEIGY AG, priority 1987, dated 1989).
pEC50: −log10 of the molar value. Converted amounts (≈) assume the structure as drawn.

Tests used:
[1] = test system: "very low density"-, "low-density"- bzw. "high density"-Lipoproteinen (VLDL, LDL bzw. HDL) im Serum; assay: Lipid-lowering effect in rats: serum lipoproteins after oral dosing (arrangement A: genetically hypercholesterolaemic male rats; arrangement B: normolipaemic rats); assay type: in vivo, Ratten; settings: repeated administration of 30 mg/kg daily
Source text: Die Diacyl-Verbindungen der vorliegenden Erfindung dagegen weisen, wenn überhaupt, eine nur marginale antibiotische Wirkung auf. Ueberraschenderweise besitzen sie jedoch eine lipidsenkende Wirkung, die in Tierversuchen, vorzugsweise an Säugetieren, z.B. an Ratten, nachgewiesen werden kann. So kann die Senkung von "very low density"-, "low-density"- bzw. "high density"-Lipoproteinen (VLDL, LDL bzw. HDL) im Serum in zwei Testanordnungen, und zwar in genetisch hypercholesterolämischen männlichen Ratten (Anordnung A) und normolipämischen Ratten beiden Geschlechts (Anordnung B) gezeigt werden.
Albino-Ratten mit einem Körpergewicht von 180-240 g, die freien Zugang zu Standard-Rattenfutter und Trinkwasser haben, werden verwendet, und zwar in Anordnung A Sprague Dawley Abkömmlinge des Stammes Tif:RAI und in Anordnung B Tiere des Wistar-Stammes IVa-WI. Die Testverbindung wird in einer Polyethylenglykollösung (mittleres Molekulargewicht von 400) oral an Gruppen von 8 bis 10 Ratten verabreicht, in der Anordnung A einmal täglich um 8 Uhr vormittags während drei aufeinanderfolgenden Tagen und zweimal, um 8 Uhr und 16 Uhr, am vierten Tag, oder im Falle der Anordnung B täglich während 5 aufeinanderfolgenden Tagen. Im Experiment A werden die Tiere 16 Stunden und im Experiment B zwei Stunden nach der letzten Gabe durch Ausblutenlassen vom Hals unter Anästhesie mit Ether getötet. […]

[2] = target: RNA-Polymerase von Escherichia coli (Escherichia coli, UniProt P0A8V2); assay: Inhibition of RNA polymerase (antibiotic effect in vitro); assay type: biochemical; settings: not yet reached at 100 µg/ml; read-out: EC₅₀ für die Inhibition der RNA-Polymerase
Source text: (§1) Die Ermittlung der antibiotischen Wirkung erfolgt z.B. einerseits in vitro durch die Bestimmung der mittleren effektiven Konzentration EC₅₀ für die Hemmung der RNA-Polymerase von Escherichia coli, sowie der minimalen Hemmkonzentration MIC ("minimum inhibitory concentration") im konventionellen Plattentest, andererseits in vivo an infizierten Mäusen und Ratten durch die Bestimmung von ED₅₀ (effektive Dosis, die für 50 % der Versuchstiere lebenserhaltend ist). Als Mikroorganismen werden für den vorliegenden Zweck insbesondere Mycobacterium tuberculosis TB H₃₇Rv und Staphylococcus aureus verwendet. Bei Verbindungen mit lipidsenkender Indikation wird eine antibiotische Wirksamkeit als nachteilig erachtet, da sie, insbesondere bei langfristiger Verabreichung, zur Bildung von gegen Antibiotika resistenten Stämmen von Mikroorganismen führen kann.

[3] = test system: Staphylococcus aureus; assay: Minimum inhibitory concentration, conventional plate test; assay type: cell-based; settings: various pathogenic strains of Staphylococcus aureus
Source text: as §1

[4] = test system: Staphylococcus aureus; assay: Antibiotic effect in vivo in infected mice; design: species or system Mäuse; settings: mice infected with Staphylococcus aureus, single dose of 200 mg/kg
Source text: as §1

Sequence of RNA-Polymerase von Escherichia coli (P0A800 whole entry): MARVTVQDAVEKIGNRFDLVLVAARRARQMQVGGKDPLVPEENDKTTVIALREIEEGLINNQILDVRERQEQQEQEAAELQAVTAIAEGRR
Sequence of RNA-Polymerase von Escherichia coli (P0A8T7 whole entry, further chain): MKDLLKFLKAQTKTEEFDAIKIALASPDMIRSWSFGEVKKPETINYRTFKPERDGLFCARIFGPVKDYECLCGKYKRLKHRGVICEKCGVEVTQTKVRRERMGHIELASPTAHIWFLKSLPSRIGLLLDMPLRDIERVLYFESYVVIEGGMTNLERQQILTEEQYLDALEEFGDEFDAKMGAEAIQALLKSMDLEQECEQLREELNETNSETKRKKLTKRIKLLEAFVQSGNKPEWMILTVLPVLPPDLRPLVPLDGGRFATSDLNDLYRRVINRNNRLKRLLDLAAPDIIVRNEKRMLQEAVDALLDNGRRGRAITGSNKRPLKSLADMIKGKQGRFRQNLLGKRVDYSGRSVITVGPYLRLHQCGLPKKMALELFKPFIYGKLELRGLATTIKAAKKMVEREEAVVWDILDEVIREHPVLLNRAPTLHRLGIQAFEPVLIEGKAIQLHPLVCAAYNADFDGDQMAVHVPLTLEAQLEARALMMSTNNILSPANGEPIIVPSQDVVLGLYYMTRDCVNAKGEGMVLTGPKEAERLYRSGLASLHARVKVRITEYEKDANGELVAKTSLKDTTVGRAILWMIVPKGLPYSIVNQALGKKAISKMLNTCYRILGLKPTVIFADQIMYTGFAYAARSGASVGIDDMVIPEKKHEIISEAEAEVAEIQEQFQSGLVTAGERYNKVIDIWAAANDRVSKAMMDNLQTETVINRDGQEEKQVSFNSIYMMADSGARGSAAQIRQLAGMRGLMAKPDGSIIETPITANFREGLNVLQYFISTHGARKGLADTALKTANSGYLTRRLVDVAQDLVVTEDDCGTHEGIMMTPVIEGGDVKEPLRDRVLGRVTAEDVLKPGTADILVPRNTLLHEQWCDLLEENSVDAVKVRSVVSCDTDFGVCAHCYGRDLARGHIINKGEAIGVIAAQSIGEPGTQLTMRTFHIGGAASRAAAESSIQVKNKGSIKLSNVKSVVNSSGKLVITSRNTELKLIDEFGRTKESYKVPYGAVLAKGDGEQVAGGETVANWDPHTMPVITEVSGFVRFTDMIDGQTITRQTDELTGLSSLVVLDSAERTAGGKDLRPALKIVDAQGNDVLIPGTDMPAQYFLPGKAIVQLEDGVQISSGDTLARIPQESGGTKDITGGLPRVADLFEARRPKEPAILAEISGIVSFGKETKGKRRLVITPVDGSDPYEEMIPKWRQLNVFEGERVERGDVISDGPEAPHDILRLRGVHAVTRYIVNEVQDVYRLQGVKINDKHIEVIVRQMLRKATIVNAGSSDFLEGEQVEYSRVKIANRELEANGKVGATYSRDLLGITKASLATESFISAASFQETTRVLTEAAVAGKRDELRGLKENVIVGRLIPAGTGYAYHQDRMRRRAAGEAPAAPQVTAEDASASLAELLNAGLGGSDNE
Sequence of RNA-Polymerase von Escherichia coli (P0A8V2 whole entry): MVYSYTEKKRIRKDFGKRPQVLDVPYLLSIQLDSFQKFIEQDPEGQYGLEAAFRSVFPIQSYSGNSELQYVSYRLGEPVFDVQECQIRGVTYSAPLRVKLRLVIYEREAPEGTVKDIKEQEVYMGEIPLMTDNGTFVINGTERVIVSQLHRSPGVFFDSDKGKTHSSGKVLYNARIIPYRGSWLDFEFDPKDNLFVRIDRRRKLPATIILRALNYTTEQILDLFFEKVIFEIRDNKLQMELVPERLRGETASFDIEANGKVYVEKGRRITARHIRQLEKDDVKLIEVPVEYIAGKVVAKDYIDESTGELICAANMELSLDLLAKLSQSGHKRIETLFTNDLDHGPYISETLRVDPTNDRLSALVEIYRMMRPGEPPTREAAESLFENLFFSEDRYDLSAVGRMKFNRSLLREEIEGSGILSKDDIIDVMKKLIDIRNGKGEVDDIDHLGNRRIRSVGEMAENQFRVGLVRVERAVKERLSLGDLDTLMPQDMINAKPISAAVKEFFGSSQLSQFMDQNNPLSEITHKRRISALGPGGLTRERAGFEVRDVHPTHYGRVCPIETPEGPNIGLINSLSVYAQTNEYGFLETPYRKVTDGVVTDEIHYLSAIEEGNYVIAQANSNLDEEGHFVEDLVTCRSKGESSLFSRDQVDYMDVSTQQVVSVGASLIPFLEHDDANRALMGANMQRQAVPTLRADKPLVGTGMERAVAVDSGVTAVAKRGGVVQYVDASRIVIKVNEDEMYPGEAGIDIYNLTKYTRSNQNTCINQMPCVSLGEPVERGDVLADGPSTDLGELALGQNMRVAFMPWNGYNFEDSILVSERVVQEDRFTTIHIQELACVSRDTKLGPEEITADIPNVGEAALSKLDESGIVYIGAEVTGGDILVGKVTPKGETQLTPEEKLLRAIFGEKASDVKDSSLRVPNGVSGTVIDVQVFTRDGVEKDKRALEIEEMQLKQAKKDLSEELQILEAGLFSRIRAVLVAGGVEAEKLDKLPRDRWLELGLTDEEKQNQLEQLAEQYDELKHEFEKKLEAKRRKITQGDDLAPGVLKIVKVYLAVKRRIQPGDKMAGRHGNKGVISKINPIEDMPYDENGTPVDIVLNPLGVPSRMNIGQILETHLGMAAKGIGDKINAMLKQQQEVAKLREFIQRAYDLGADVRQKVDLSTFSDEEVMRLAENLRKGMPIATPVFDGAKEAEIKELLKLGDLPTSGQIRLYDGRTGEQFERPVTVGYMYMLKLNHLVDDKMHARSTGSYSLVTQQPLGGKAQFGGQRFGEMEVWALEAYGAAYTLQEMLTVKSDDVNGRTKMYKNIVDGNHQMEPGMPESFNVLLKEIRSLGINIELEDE
Sequence of RNA-Polymerase von Escherichia coli (P0A7Z4 whole entry, further chain): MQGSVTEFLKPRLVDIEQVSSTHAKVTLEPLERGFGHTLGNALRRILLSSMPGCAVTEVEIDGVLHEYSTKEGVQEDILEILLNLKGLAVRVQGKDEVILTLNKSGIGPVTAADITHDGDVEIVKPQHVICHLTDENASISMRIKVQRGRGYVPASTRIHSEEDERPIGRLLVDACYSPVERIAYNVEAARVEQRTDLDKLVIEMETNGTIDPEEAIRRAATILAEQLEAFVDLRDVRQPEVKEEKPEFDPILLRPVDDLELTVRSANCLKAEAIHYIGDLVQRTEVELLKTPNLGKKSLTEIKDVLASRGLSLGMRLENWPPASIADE

For `COC1C=COC2(C)Oc3c(C)c(OC(=O)C(C)(C)C)c4c(c3C2=O)C(=O)C(N2CCN(Cc3c(C)cc(C)cc3C)CC2)=C(C4=O)N(C(=O)C(C)(C)C)C(=O)C(C)=CC=CC(C)C(O)C(C)C(O)C(C)C(OC(C)=O)C1C` (stereo not shown) [8-O,N-Dipivaloyl-3-[4-(2,4,6-trimethylbenzyl)-1-piperazinyl]-rifamycin S], the “Senkung der "LDL-Fraktion"” value [1] was 50-70%, the pEC50 [2] was under 4.03 and the MIC [3] was about 64 µg/mL (≈ 59.2 µM). The “antibiotische Wirksamkeit in vivo” value [4] was “antibiotisch unwirksam”.
